Assay results as given in patent US20090208936A1, “IDENTIFICATION OF MOLECULAR INTERACTIONS AND THERAPEUTIC USES THEREOF” (Univeristy of Florida Research Foundations Inc., priority 2005, published 2009).
Each block holds one substance with its values, some of them ahead of it. {6-FAM} = 6-carboxyfluorescein label; {Dabcyl} = Dabcyl quencher

Experiments:
α-thrombin [1] = biological target: T1, α-thrombin (Homo sapiens, UniProt P00734); conditions: stated as known property; cited from earlier work
T1 construct: Human oa-thrombin (M.W. ˜36.7 kDa); purchased Haematologic Technologies Inc. (Essex Junction, Vt.)

α-thrombin [2] = biological target: T1, α-thrombin; conditions: reported value used for the calculation; read-out: reported 15mer aptamer-thrombin Kd/AT; cited from earlier work
α-thrombin [3] = biological target: T1, α-thrombin; experiment: FRET-based signaling aptamer binding to α-thrombin (6-FAM quenching); conditions: 100 nM aptamer, 500 nM α-thrombin
Text: Dye-labeled aptamers were obtained from Integrated DNA Technologies, Inc. (Coralville, Iowa). The sequences of the 15mer and 27mer thrombin-aptamer are 5′-GGT TGG TGT GGT TGG-3′ (SEQ ID NO 1), and 5′-ACCCGTGGTAGGGTAGGATGGGGTGGT-3′ (SEQ ID NO 2) respectively. For FRET-based assays, both aptamers were dual-labeled with 6-FAM at the 5′ end and Dabcyl at the 3′ end. For fluorescence anisotropy assays, both aptamer sequences were labeled with only TAMRA at the 3′ end. A control 15mer aptamer was labeled with only 6-FAM at the 3′ end. All aptamers were purified with HPLC. […]
Fluorescence measurements were performed on a Fluorolog-3 spectrofluorometer (Jobin Yvon Inc., Edison, N.J.). For FRET-based assays, the fluorescence of 6-FAM was monitored with an excitation wavelength of 488 mn and an emission wavelength of 515 nm. For anisotropy-based experiments, the fluorescence of TAMRA was monitored with 555 nm as the excitation and 580 mn as the emission wavelength. […] In the aptamer/thrombin binding experiments, a very small volume of α-thrombin at a high concentration was added to an aptamer solution in the cuvette to make a molar ratio of aptamer and thrombin 1:1, and the fluorescence signals were recorded before and after the addition. […]

thrombin = biological target: T2, thrombin (Homo sapiens, UniProt P00734); experiment: Kinetic studies of competitive assays (order of incubation, concentration dependence); format: binding; conditions: 100 nM FQ-15Ap, 100 nM thrombin, 500 nM HirF, 5° C., 6-FAM fluorescence
T2 construct: Human oa-thrombin (M.W. ˜36.7 kDa); purchased Haematologic Technologies Inc. (Essex Junction, Vt.)
Method: Experiments were conducted in a 100 μL cuvette in the spectrofluorometer. While the detection system was running, the reaction samples were quickly mixed together. Data were recorded from the point of mixing to when the signal reached the plateau and stabilized. The reaction was regarded completed when the signal was at the plateau. […] The temperatures of reactions were maintained using a RTE-111 water bath/circulator (Neslab Instruments, Inc., Newington, N.H.).
In order to evaluate the possibilities of such false negatives in the assays, a comparison of the reaction rates of aptamer and prey proteins with thrombin were conducted. One direct way to conduct the comparison is to change the order the aptamer and the prey protein are incubated with thrombin. In one experiment, the prey protein was incubated with thrombin first and then the aptamer was used to displace the prey protein from the thrombin/protein complex. In another experiment, the order of adding aptamer and prey protein to thrombin was reversed. […]
Another indirect method was also used to study the effects of aptamer on thrombin/protein interactions. […] Different concentrations of AT3 were added to thrombin/T-15Ap incubation solution and the anisotropy of the aptamer was monitored as AT3 would displace T-15Ap.

α-thrombin [4] = biological target: T1, α-thrombin; experiment: Fluorescence anisotropy of TAMRA-labeled aptamer on binding α-thrombin; conditions: aptamer/α-thrombin 1:1
Method: Fluorescence measurements were performed on a Fluorolog-3 spectrofluorometer (Jobin Yvon Inc., Edison, N.J.). For FRET-based assays, the fluorescence of 6-FAM was monitored with an excitation wavelength of 488 mn and an emission wavelength of 515 nm. For anisotropy-based experiments, the fluorescence of TAMRA was monitored with 555 nm as the excitation and 580 mn as the emission wavelength. Slit widths were varied to yield the best signals. All measurements were carried out in a 100 μL cuvette. In the aptamer/thrombin binding experiments, a very small volume of α-thrombin at a high concentration was added to an aptamer solution in the cuvette to make a molar ratio of aptamer and thrombin 1:1, and the fluorescence signals were recorded before and after the addition. […]
where the subscripts V and H refer to the orientation (vertical or horizontal) of the polarizers for the intensity measurements, with the first subscript indicating the position of the excitation polarizer and the second for the emission polarizer. G is the G-factor of the spectrofluorometer, which is calculated as G=IHV/IHH. […] For a certain dye, the G-factor would be measured and used throughout the experiments that used the same dye. […] For TAMRA, all intensities were measured at an emission wavelength of 580 nm with an excitation wavelength of 555 nm. […]

Substance: 5′-ACCCGTGGTAGGGTAGGATGGGGTGGT-3′ (DNA ACCCGTGGTAGGGTAGGATGGGGTGGT; chemistry not given here) [27Ap]
capability to inhibit the enzymatic activity of thrombin (α-thrombin [1]): does not

Substance: 5′-GGT TGG TGT GGT TGG-3′ [15Ap]
capability to inhibit the enzymatic activity of thrombin (α-thrombin [1]): has the protein-inhibition capability
Kd (α-thrombin [2]): 0.075 µM

Substance: 5′-(6-FAM)-GGT TGG TGT GGT TGG-(Dabcyl)-3′ (DNA GGTTGGTGTGGTTGG; DNA, 5' {6-FAM}, 3' {Dabcyl}, backbone not given here) [FQ-15Ap, 15mer thrombin aptamer dual-labeled with 6-FAM at the 5′ end and Dabcyl at the 3′ end]
drop of 6-FAM fluorescence when excess α-thrombin was added (α-thrombin [3]; room temperature, 50 mM NaCl buffer): about 55%
kinetic profile depending on order of incubation with thrombin (thrombin): aptamer replacing HirF was even slower than HirF replacing aptamer

6-FAM fluorescence change upon addition of α-thrombin (α-thrombin [3]): decreased 6-FAM fluorescence
Substance: 5′-(6-FAM)-ACCCGTGGTAGGGTAGGATGGGGTGGT-(Dabcyl)-3′ [FQ-27Ap]

Substance: 5′-GGT TGG TGT GGT TGG-(TAMRA)-3′ [T-15Ap]
increase of anisotropy on mixing with α-thrombin (α-thrombin [4]): more than 30%
